Test system: T4 viral receptors
Experiment: General statements: binding to T4 viral receptors / inhibition of gp 120 binding to brain membranes
Experimental: Radiolabeling of gp 120, Preparation of Brain Membranes, Binding and Crosslinking of gp120 to Receptor, and Immunoprecipitation of T4 Antigen. HTLV-IIIb isolate of HIV was propaged in H9 cells, and the gp120 was isolated by immunoaffinity chromatography and preparative NaDodSO₄/PAGE. Purified gp120 was labeled with ¹²⁵I by the chloramine-T method.
Fresh human, monkey, and rat hippocampus were quickly homogenized (Polytron, Brinkmann Instruments) in 100 vol of ice-cold 50 mM Hepes (pH 7.4). The membranes collected by centrifugation (15,000 x g) were washed in the original buffer volume and were used fresh or stored at -70°C. Before use, brain membranes and highly purified T cells (ref. 16; gift of Larry Wahl) were preincubated for 15-30 min in phosphate-buffered saline (PBS). Membranes derived from 2mg (initial wet weight) of brain (≈100µg of protein) were incubated with 28,000 cpm of ¹²⁵I-gp120 for 1 hr at 37°C in 200 µl (final volume) of 50 mM Hepes containing 0.1% bovine serum albumin and the peptidase inhibitors bacitracin (0.005%), aprotinin (0.005%), leupeptin (0.001%), and chymostatin (0.001%). Incubations were rapidly vacuum-filtered and counted to determine the receptor-bound material.

Substance: CYS-THR-THR-ASN-TYR-THR-CYS (CTTNYTC; printed: CYS-THR-THR-ASN-TYR-THR-CYS) [seven amino acid peptide]
- activity (test not specified): active
